This note sets out measurements from patent publication US20250338851A1, “Boosted IPBC for Wet-State Bacterial Control” (Troy Technology II, Inc., priority 2021, published 2025).

Values joined by “and” are separate entries in the source; they are usually repeats but may differ in a detail not shown here. Equal values may be shown once.

In general, MIC refers to the least concentration at which growth counts as inhibited.

Common to all, as to format: cell-based
The test system of test [1] is E. coli ATCC #11229. The test is described as follows: Minimum inhibitory concentration testing (microbroth dilution) and synergy index. To be noted: Escherichia coli, ATCC11229; 96 well microbroth dilution, MHB, 24 hours of incubation; read-out: MIC. The procedure: (§1) MICs were determined via microbroth dilution using the following specific test parameters:
(§2) Biocide dilutions were performed in 2-fold increments for each assay.
(§3) Synergy index (SI) scores were calculated according to the mass action equation below: […]
(§4) S.I.[MIC[A]in-blend/MIC[A]alone]+[MIC[B]in-blend/MIC[B]alone]
(§5) Combinations of ingredients were determined to be synergistic (S.I.<0.5), additive (S.I.>0.5 to 1), indifferent (S.I.>1 to <2) or antagonistic (S.I.>2), as defined by EUCAST guidelines. See European Committee for Antimicrobial Susceptibility Testing (EUCAST) of the European Society of Clinical Microbiology and Infectious Diseases (ESCMID). EUCAST Definitive Document E.Def 1.2, May 2000: Terminology relating to methods for the determination of susceptibility of bacteria to antimicrobial agents, Clin. Microbiol. Infect. Off Publ. Eur. Soc. Clin. Microbiol. Infect. Dis. […] Microbiol.
On the technique in general: Dilution methods test growth across graded concentrations, often in twofold steps.

In test [2] the test system is P. aeruginosa ATCC #10145. The test is described as above. As to conditions: Pseudomonas aeruginosa, ATCC10145, 24 h. The procedure: as §1, §2, §3, §4, §5
The subject of test [3] is Microbacterium sp. Troy JZ13. The test is described as above. To be noted: 96 well microbroth dilution, MHB, 24 hours of incubation; read-out: MIC. The procedure: as §1, §2, §3, §4, §5
Test [4] has as its system Pseudomonas sp. Troy JZ103. The description is as above. As to conditions: Pseudomonas; 96 well microbroth dilution, MHB, 24 hours of incubation; read-out: MIC. The method, then: as §1, §2, §3, §4, §5
Test [5] relates to E. aerogenes ATCC #13048. Described as above. To be noted: Klebsiella aerogenes, ATCC13048; 96 well microbroth dilution, MHB, 24 hours of incubation; read-out: MIC. The method, then: as §1, §2, §3, §4, §5
The subject of test [6] is S. aureus ATCC #6538. The test is described as above. To be noted: Staphylococcus aureus, ATCC6538; 96 well microbroth dilution, MHB, 24 hours of incubation; read-out: MIC. The method, then:
as §1, §2, §3, §4, §5

The subject of test [7] is Pseudomonas aeruginosa (ATCC #10145). The test is described as follows: Checkerboard assay. As to conditions: alone, 100-500 ppm; 24 hours of incubation. The procedure:
The checkerboard assay was performed by separately dosing Polyphase PW40 (40% IPBC) and a 20% nanoparticle ZnO dispersion (Sigma #721077) into 100 microliters of Mueller Hinton Broth containing ˜1.0*10^5 CFU/mL of Pseudomonas aeruginosa (ATCC #10145). The plate was then incubated overnight at 37° C. with constant double orbital shaking. The next day, the dispersions were allowed to settle on the bench for 2 hours and the plate was photographed. Growth in this assay was defined as the turbidity of the supernatant.

The subject of test [8] is Bacillus sp. Troy JZ14. The test is described as follows: Minimum inhibitory concentration testing (microbroth dilution) and synergy index. To be noted: Bacillus; 96 well microbroth dilution, MHB, 24 hours of incubation; read-out: MIC. The procedure: as §1
(§6) Necessary organism dilutions via OD600 were calculated based on OD600 of 1.0 being equivalent to 8×10^8 CFU/mL. Biocide dilutions were performed in 2-fold increments for each assay.
as §3, §4
(§7) Combinations of ingredients were determined to be synergistic (S.I.<0.5), additive (S.I.>0.5 to 1), indifferent (S.I.>1 to <2) or antagonistic (S.I.>2), as defined by EUCAST guidelines. See European Committee for Antimicrobial Susceptibility Testing (EUCAST) of the European Society of Clinical Microbiology and Infectious Diseases (ESCMID). EUCAST Definitive Document E.Def 1.2, May 2000: Terminology relating to methods for the determination of susceptibility of bacteria to antimicrobial agents, Clin. Microbiol. Infect. Off Publ. Eur. Soc. Clin. Microbiol. Infect. Dis. 6, 503-508 (2000); Helander I. M., Mattila-Sandholm T., Fluorometric assessment of gram-negative bacterial permeabilization, J. Appl. Microbiol. 88:213-219 (2000).

Test [9] relates to Burkholderia sp. Troy JZ2. Described as above. To be noted: Burkholderia, 24 h. The procedure: as §1, §6, §3, §4, §7
The subject of test [10] is Pseudomonas aeruginosa (ATCC #10145). The test is described as follows: Growth curves (OD600). The procedure:
To generate growth curves, overnight cultures of Pseudomonas aeruginosa (ATCC #10145) from Plate Count Agar were lifted and resuspended in dH2O and adjusted to OD600=0.01 with sterile Mueller Hinton Broth (MHB). This culture was distributed into wells of an uncovered 96-well plate with the indicated biocides. The OD600 was then measured initially and then every 30′ for 16 hours at 37° C. with constant double orbital shaking. Due to the opacity of the samples dosed with some test compounds, the curves were generated by background subtracting from wells containing sterile MHB and then subtracted from their initial (t=0) measurement.

Test [11] has the same test system. The test is described as follows: Kill curve. To be noted: 0.2%. The procedure:
Overnight cultures of Pseudomonas aeruginosa (ATCC #10145) growing in Tryptic Soy Broth were diluted to OD600=0.7 in Mueller Hinton Broth containing the indicated level of test compound. Samples containing IPBC were dosed with Polyphase PW40 (40% IPBC). Samples containing ZnO were dosed from a 50% ZnO dispersion (“1678-54”). Time points were collected by adding 1 mL of the sample into 9 mL of Dey-Engley Neutralizing Broth and performing a serial dilution in 1× Butterfield's Phosphate Buffer. Counts were obtained from pour plates in Tryptic Soy Agar after overnight incubation at 35° C.

In the case of `CCCCNC(=O)OCC#CI` [IPBC, 3-iodoprop-2-yn-1-yl butylcarbamate], the MIC in test [1] was 2400 µg/mL; in test [2] it was no less than 400 µg/mL; in [3], 11 µg/mL; in test [4], 300 µg/mL; in [5], 1000 µg/mL; in test [6], 450 µg/mL. For the same molecule, the MIC was found to be 9 µg/mL in [8] and 63 µg/mL in [9]. The “Turbidity of wells (growth)” value in [7] is “turbid”. Also, the Pseudomonas growth result was “complete growth inhibition” in test [10] (400 ppm IPBC (0.1% w/w Polyphase PW40) with ≥0.25 mM PAβN, 16 hours); “growth” in test [10] (400 ppm alone, 16 hours); “weaker IPBC potentiation” in test [10] (IPBC with PAβN in the presence of 1 mM MgCl2); “no Pseudomonas inhibition” in test [10] (control, without PAβN (FIG. 1C)). Moreover, the “Kill curve CFU/mL” value in test [11] (0 hrs) was 5.40E+06 CFU/mL and 7.00E+06 CFU/mL; in test [11] (2 hrs) it was 7.10E+06 CFU/mL and 7.30E+06 CFU/mL; in [11] (24 hrs) it was 1.33E+10 CFU/mL and 1.45E+10 CFU/mL; in [11] (48 hrs), 4.90E+09 CFU/mL and 3.80E+09 CFU/mL.
